Reference: patent US11066369B2, “N-(pyridin-2-yl)pyridine-sulfonamide derivatives and their use in the treatment of disease” (Novartis AG, priority 2016, dated 2021)
Where a name gives a salt, the structure may show the parent alone. Read-outs that look alike come from different tables or passages of the source.

Molecular target: T1, horseradish peroxidase (HRP) tagged delF508-CFTR (Homo sapiens, UniProt P13569, DEL508-508)
T1 construct: expressed in transfected cells
Test: Measurement of delF508-CFTR-HRP surface expression in CFBE41o- cells;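 for DelF508-CFTR-HRP Amax %: percent efficacy relative to reference corrector lumacaftor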
Assay type: cell-based
Conditions: for Emax: read-out: DelF508-CFTR-HRP Amax %
Procedure, shortened: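 Surface-trafficked delF508-CFTR detected via extracellular HRP tag, read as luminescence from a membrane-impermeant substrate in CFBE41o- cells. Cells pre-induced 48h with 500 ng/mL doxycycline, then exposed 24h at 37° C to a 10-point, 3-fold dilution series from 10 μM (DMSO ≤0.5%). Triplicate dose-responses fitted logistically for EC50 after per-plate normalization; fold change versus reference compound.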

[1] = CFBE41o- cells, mean of at least two replicates, read-out: DelF508-CFTR-HRP EC50
[2] = CFBE41o- cells, surface expression Amax
[3] = delF508-CFTR-HRP surface expression, CFBE41o- cells
[4] = delF508-CFTR-HRP surface expression, CFBE41o- cells, read-out: DelF508-CFTR-HRP EC50

T1 sequence (P13569 with tags, fused parts or gaps DEL508-508): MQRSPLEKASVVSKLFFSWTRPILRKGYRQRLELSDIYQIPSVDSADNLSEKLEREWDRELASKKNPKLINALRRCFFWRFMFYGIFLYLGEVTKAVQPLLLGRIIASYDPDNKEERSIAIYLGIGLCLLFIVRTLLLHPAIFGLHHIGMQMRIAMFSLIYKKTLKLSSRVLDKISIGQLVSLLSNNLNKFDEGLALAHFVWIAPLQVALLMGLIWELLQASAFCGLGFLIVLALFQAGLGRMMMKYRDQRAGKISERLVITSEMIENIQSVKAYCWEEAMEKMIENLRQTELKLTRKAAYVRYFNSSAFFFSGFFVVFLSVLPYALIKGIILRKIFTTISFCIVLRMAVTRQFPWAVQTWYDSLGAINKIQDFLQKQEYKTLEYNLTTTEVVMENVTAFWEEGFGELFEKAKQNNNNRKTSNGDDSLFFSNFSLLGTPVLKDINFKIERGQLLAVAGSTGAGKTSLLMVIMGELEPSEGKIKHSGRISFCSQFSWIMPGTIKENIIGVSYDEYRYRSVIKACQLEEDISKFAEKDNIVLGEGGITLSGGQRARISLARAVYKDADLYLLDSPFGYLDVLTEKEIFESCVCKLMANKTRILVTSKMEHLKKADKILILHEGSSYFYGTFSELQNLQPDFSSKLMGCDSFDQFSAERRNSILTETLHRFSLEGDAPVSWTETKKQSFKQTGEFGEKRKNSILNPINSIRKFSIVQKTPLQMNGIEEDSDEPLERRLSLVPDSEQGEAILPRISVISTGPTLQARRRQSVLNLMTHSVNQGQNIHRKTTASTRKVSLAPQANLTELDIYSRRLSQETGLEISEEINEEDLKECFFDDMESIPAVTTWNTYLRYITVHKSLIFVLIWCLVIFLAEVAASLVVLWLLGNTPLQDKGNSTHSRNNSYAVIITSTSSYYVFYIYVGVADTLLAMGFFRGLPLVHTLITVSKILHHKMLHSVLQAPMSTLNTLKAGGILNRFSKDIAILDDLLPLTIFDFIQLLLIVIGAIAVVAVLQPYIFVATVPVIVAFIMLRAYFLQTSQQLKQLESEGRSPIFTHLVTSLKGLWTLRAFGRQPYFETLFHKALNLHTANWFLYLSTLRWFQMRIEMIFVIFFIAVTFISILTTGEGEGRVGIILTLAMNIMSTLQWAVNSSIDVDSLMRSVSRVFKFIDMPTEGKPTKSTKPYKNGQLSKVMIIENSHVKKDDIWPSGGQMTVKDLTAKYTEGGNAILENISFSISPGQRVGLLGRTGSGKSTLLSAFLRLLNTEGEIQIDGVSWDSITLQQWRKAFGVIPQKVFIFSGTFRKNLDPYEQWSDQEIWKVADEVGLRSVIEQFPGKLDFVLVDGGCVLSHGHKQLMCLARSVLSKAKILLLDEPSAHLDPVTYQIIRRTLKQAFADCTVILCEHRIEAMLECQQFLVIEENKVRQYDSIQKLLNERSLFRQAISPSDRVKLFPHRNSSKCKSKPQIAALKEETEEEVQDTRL

EC50 [1] [nM] | Emax [2] [%] | Emax [3] [%] | EC50 [4] [nM] | SMILES | EC50 [nM]
530 | 503 | – | – | C[C@@]1(C(=O)O)CCCN(c2cccc(S(=O)(=O)Nc3ccc(Cl)c(-c4ccccc4C4CCC4)n3)n2)C1 [Example 391, (R)-1-(6-(N-(5-chloro-6-(2-cyclobutylphenyl)pyridin-2-yl)sulfamoyl)pyridin-2-yl)-3-methylpiperidine-3-carboxylic Acid] | –
– | – | 89.2 | 3030 | Cc1ccccc1-c1nc(NS(=O)(=O)c2cccc(N3CCN[C@@H](C(=O)O)C3)n2)ccc1C(F)(F)F [Example 341, (2R)-4-(6-{[6-(2-methylphenyl)-5-(trifluoromethyl)pyridin-2-yl]sulfamoyl}pyridin-2-yl)piperazine-2-carboxylic Acid] | –
1900 | – | – | – | Cc1ccc(F)cc1-c1nc(NS(=O)(=O)c2cccc(N3CCC[C@@](C)(C(=O)O)C3)n2)ccc1C(F)(F)F [Example 416, (3R)-1-(6-{[6-(5-fluoro-2-methylphenyl)-5-(trifluoromethyl)pyridin-2-yl]sulfamoyl}pyridin-2-yl)-3-methylpiperidine-3-carboxylic Acid] | –
1880 | – | – | – | Cc1c(F)cccc1-c1nc(NS(=O)(=O)c2cccc(N3CCC[C@@](C)(C(=O)O)C3)n2)ccc1C(F)(F)F [Example 417, (3R)-1-(6-{[6-(3-fluoro-2-methylphenyl)-5-(trifluoromethyl)pyridin-2-yl]sulfamoyl}pyridin-2-yl)-3-methylpiperidine-3-carboxylic Acid] | –
2020 | – | – | – | COc1ccc(Cl)c(-c2nc(NS(=O)(=O)c3cccc(N4CCC[C@@](C)(C(=O)O)C4)n3)ccc2C(F)(F)F)c1 [Example 424, (R)-1-(6-(N-(6-(2-chloro-5-methoxyphenyl)-5-(trifluoromethyl)pyridin-2-yl)sulfamoyl)pyridin-2-yl)-3-methylpiperidine-3-carboxylic Acid] | –
– | – | 166 | 1890 | Cc1ccccc1-c1nc(NS(=O)(=O)c2cccc(N[C@H]3C[C@](C)(C(=O)O)C3)n2)ccc1C(F)(F)F [Example 365, (1r,3s)-1-methyl-3-[(6-{[6-(2-methylphenyl)-5-(trifluoromethyl)pyridin-2-yl]sulfamoyl}pyridin-2-yl)amino]cyclobutane-1-carboxylic Acid] | –
– | – | – | 930 | CCCOc1ccccc1-c1nc(NS(=O)(=O)c2cccc(N3CCC[C@@](C)(C(=O)O)C3)n2)ccc1C(F)(F)F [Example 329, (R)-3-methyl-1-(6-(N-(6-(2-propoxyphenyl)-5-(trifluoromethyl)pyridin-2-yl)sulfamoyl)pyridin-2-yl)piperidine-3-carboxylic Acid] | –
– | – | 231 | 1590 | Cc1ccccc1-c1nc(NS(=O)(=O)c2cccc(N[C@H]3CC[C@H](C(=O)O)CC3)n2)ccc1C(F)(F)F [Example 364, (1r,4r)-4-((6-(N-(6-(o-tolyl)-5-(trifluoromethyl)pyridin-2-yl)sulfamoyl)pyridin-2-yl)amino)cyclohexanecarboxylic Acid] | –
796 | – | – | – | CCCc1ccccc1-c1nc(NS(=O)(=O)c2cccc(N3CCCC(C)(C(=O)O)C3)n2)ccc1C(F)(F)F (centres unmarked) [Example 401, 3-methyl-1-(6-(N-(6-(2-propylphenyl)-5-(trifluoromethyl)pyridin-2-yl)sulfamoyl)pyridin-2-yl)piperidine-3-carboxylic Acid] | –
622 | 702 | – | – | CCCC1(C(=O)O)CCCN(c2cccc(S(=O)(=O)Nc3ccc(Cl)c(-c4c(C)cccc4C)n3)n2)C1 (centres unmarked) [Example 457, 1-(6-(N-(5-chloro-6-(2,6-dimethylphenyl)pyridin-2-yl)sulfamoyl)pyridin-2-yl)-3-propylpiperidine-3-carboxylic Acid] | –
– | – | 71.3 | 3140 | Cc1ccccc1-c1nc(NS(=O)(=O)c2cccc(N3CCN[C@H](C(=O)O)C3)n2)ccc1C(F)(F)F [Example 335, (2S)-4-(6-{[6-(2-methylphenyl)-5-(trifluoromethyl)pyridin-2-yl]sulfamoyl}pyridin-2-yl)piperazine-2-carboxylic Acid] | –
1020 | 928 | – | – | CC(C)c1ccccc1-c1nc(NS(=O)(=O)c2cccc(N3CCCC(C)(C(=O)O)C3)n2)ccc1Cl (centres unmarked) [Example 388, 1-(6-(N-(5-chloro-6-(2-isopropylphenyl)pyridin-2-yl)sulfamoyl)pyridin-2-yl)-3-methylpiperidine-3-carboxylic Acid] | –

The next lines start with the molecule.

SMILES | EC50 [1] [nM] | Emax [2] [%] | Emax [3] [%] | EC50 [4] [nM] | EC50 [nM]
CC(C)c1ccccc1-c1nc(NS(=O)(=O)c2cccc(N)n2)ccc1F [Example 35, 6-amino-N-(5-fluoro-6-(2-isopropylphenyl)pyridin-2-yl)pyridine-2-sulfonamide] | – | – | 398 | 2110 | –
Cc1c(F)cccc1-c1nc(NS(=O)(=O)c2cccc(N3CCNCC3)n2)ccc1Cl [Example 194, N-[5-chloro-6-(3-fluoro-2-methylphenyl)pyridin-2-yl]-6-(piperazin-1-yl)pyridine-2-sulfonamide hydrochloride] | – | – | 177 | 3840 | –
Nc1cccc(S(=O)(=O)Nc2ccc(Cl)c(-c3cc(Cl)ccc3C3CC3)n2)n1 [Example 16, 6-amino-N-(5-chloro-6-(5-chloro-2-cyclopropylphenyl)pyridin-2-yl)pyridine-2-sulfonamide] | – | – | 519 | 1010 | –
COc1ccccc1-c1nc(NS(=O)(=O)c2cccc(N)n2)ccc1Cl [Example 76, 6-amino-N-(5-chloro-6-(2-methoxyphenyl)pyridin-2-yl)pyridine-2-sulfonamide] | – | – | 156 | 2300 | –
Cc1cccc(C)c1-c1nc(NS(=O)(=O)c2cccc(N3CCC(O)(C(=O)O)CC3)n2)ccc1Cl [Example 261, 1-(6-{[5-chloro-6-(2,6-dimethylphenyl)pyridin-2-yl]sulfamoyl}pyridin-2-yl)-4-hydroxypiperidine-4-carboxylic Acid] | – | – | 22.8 | 4140 | –
Nc1cccc(S(=O)(=O)Nc2ccc(Cl)c(-c3ccc(C(F)(F)F)cc3)n2)n1 [Example 94, 6-amino-N-(5-chloro-6-(4-(trifluoromethyl)phenyl)pyridin-2-yl)pyridine-2-sulfonamide] | – | – | 20.3 | 3190 | –
Cc1ccccc1-c1nc(NS(=O)(=O)c2cccc(N)n2)cc(C(F)(F)F)c1Cl [Example 22, 6-amino-N-(5-chloro-6-(o-tolyl)-4-(trifluoromethyl)pyridin-2-yl)pyridine-2-sulfonamide] | – | – | 490 | 1620 | –
[2H]C([2H])([2H])c1ccccc1-c1nc(NS(=O)(=O)c2ccnc(N)c2)ccc1Cl [Example 26, 2-amino-N-(5-chloro-6-(2-(methyl-d3)phenyl)pyridin-2-yl)pyridine-4-sulfonamide] | – | – | 450 | 2200 | –
Cc1cccc(C)c1-c1nc(NS(=O)(=O)c2cccc(N3CCn4ccnc4C3)n2)ccc1Cl [Example 198, N-(5-chloro-6-(2,6-dimethylphenyl)pyridin-2-yl)-6-(5,6-dihydroimidazo[1,2-a]pyrazin-7(8H)-yl)pyridine-2-sulfonamide] | – | – | 692 | 1950 | –
Cc1cccc(C)c1-c1ccc(Cl)c(NS(=O)(=O)c2cccc(N)n2)n1 [Example 96, 6-amino-N-(3-chloro-6-(2,6-dimethylphenyl)pyridin-2-yl)pyridine-2-sulfonamide] | – | – | 10 | 4330 | –
Cc1ccc(F)cc1-c1nc(NS(=O)(=O)c2cccc(N3C[C@@H]4CC[C@H]3CN4)n2)ccc1C(F)(F)F [Example 200, 6-((1S,4S)-2,5-diazabicyclo[2.2.2]octan-2-yl)-N-(6-(5-fluoro-2-methylphenyl)-5-(trifluoromethyl)pyridin-2-yl)pyridine-2-sulfonamide Hydrochloride] | – | – | 553 | 3170 | –
Cc1ccc(C#N)cc1-c1nc(NS(=O)(=O)c2ccnc(N3CC(C)(O)C3)c2)ccc1C(F)(F)F [Example 317, N-(6-(5-cyano-2-methylphenyl)-5-(trifluoromethyl)pyridin-2-yl)-2-(3-hydroxy-3-methylazetidin-1-yl)pyridine-4-sulfonamide] | – | – | 185 | 4670 | –
Cc1ccc(F)cc1-c1nc(NS(=O)(=O)c2ccnc(N3CCNCC3)c2)ccc1Cl [Example 327, N-(5-chloro-6-(5-fluoro-2-methylphenyl)pyridin-2-yl)-2-(piperazin-1-yl)pyridine-4-sulfonamide] | – | – | 92.5 | 4260 | –
Cc1ccccc1-c1nc(NS(=O)(=O)c2cccc(N3[C@@H]4CC[C@H]3[C@@H](C(=O)O)C4)n2)ccc1C(F)(F)F [Example 462, (1S,2S,4R)-7-(6-(N-(6-(o-tolyl)-5-(trifluoromethyl)pyridin-2-yl)sulfamoyl)pyridin-2-yl)-7-azabicyclo[2.2.1]heptane-2-carboxylic Acid] | – | 108 | – | – | 2930
Cc1cc(F)ccc1-c1nc(NS(=O)(=O)c2ccc(N)nc2)ccc1Cl [Example 71, 6-amino-N-(5-chloro-6-(4-fluoro-2-methylphenyl)pyridin-2-yl)pyridine-3-sulfonamide] | – | – | 196 | 3550 | –
Cc1ccc(C#N)cc1-c1nc(NS(=O)(=O)c2ccnc(N)c2)ccc1C(F)(F)F [Example 64, 2-amino-N-(6-(5-cyano-2-methylphenyl)-5-(trifluoromethyl)pyridin-2-yl)pyridine-4-sulfonamide] | – | – | 223 | 1960 | –
Cc1c(C#N)cccc1-c1nc(NS(=O)(=O)c2ccnc(N)c2)ccc1Cl [Example 87, 2-amino-N-(5-chloro-6-(3-cyano-2-methylphenyl)pyridin-2-yl)pyridine-4-sulfonamide] | – | – | 93.8 | 4100 | –
